The results in this text go back to US11299472B2, “Fumarate salt of (R)-3-(1-(2,3-dichloro-4-(pyrazin-2-yl)phenyl)-2,2,2- trifluoroethyl)-1-methyl-1-(1-methylpiperidin-4-yl) urea, methods of preparation, and uses thereof” (Helsinn Healthcare SA, priority 2017, dated 2022).

Series [1] can be described thus: Rat pharmacokinetic study, single oral HM04 fumarate salt 3, 10, 30 mg/kg (Example 10). The series is classed as in vivo, male Sprague Dawley rats. The method, then: (§1) The pharmacokinetics of HM04 in plasma after single oral administration of HM04 fumarate salt to 6-week old male Sprague Dawley rats and male Beagle dogs (1-5 years of age) was investigated. Test formulations of 0.6 mg/mL, 2 mg/mL, and 6 mg/mL HM04 fumarate salt (based on weight of the free base) were prepared in 5% glucose solution. Doses of 3, 10, and 30 mg/kg HM04 fumarate salt (based on weight of the free base) were administered by gastric gavage as a 5 mL/kg dose volume of each of the three test formulations. Four animals were in each dose group. The formulation was administered to the dogs in fasting conditions with food provided three hours post-dosing.
A comparison of the plasma concentration of HM04 (ng/mL) in rats over time is provided in FIG. 19 and a summary of the pharmacokinetic analysis is provided in Table 5, below. […] The standard deviation associated with the mean oral bioavailability was calculated according to the formula: SDq=[^2√{square root over ((my^2·SDx^2+mx^2−SDy^2))}]/my^2 where q=mean bioavailability; mx=oral dose-normalized mean AUC, and my=IV dose-normalized mean AUC.
(§2) Plasma HM04 concentrations were measured by LC-MS/MS following protein precipitation in the 96-well plate format. At the time of analysis samples were thawed out at ambient temperature. Aliquots of 25 μL of rat or dog K3EDTA plasma were spiked with 300 μL of internal standard (25 ng/mL of HM04-d8 in acetonitrile). After gentle vortex mixing for 5 minutes and centrifugation at 2010 g for 15 minutes at 4° C., an aliquot of 100 μL of the organic phase was transferred into a fresh 96-well polypropylene plate, using a P3-Evolution robotic system (Perkin Elmer). Following dilution with 100 μL of […] ammonium formate pH 3.5, an aliquot of 10 μL was injected into the LC-MS/MS system.

Series [2] in a line: Dog pharmacokinetic study, single oral HM04 fumarate salt 3, 10, 30 mg/kg (Example 10). Type of series: in vivo, male Beagle dogs. The method, then:
as §1
Oral absolute bioavailability at 3 mg/kg was calculated from the ratio of individual oral AUC∞ to the individual AUC∞ values determined following intravenous administration of 3 mg/kg HM04 fumarate salt (based on weight of the free base) to the same four male Beagle dogs.
Oral absolute bioavailability at 10 mg/kg was calculated from the ratio of individual oral AUC∞ to the individual AUC∞ values determined following intravenous administration of 10 mg/kg HM04 fumarate salt (based on weight of the free base) to the same four male Beagle dogs.
as §2

In series [3] the test system is Snord116+/− (Het) mice and wild-type (WT) littermates. Briefly: Food intake after acute administration in Prader-Willi mouse model. Type of series: in vivo. The conditions noted are these: for cumulative food intake: fasted 16 hours. An excerpt:
The effect of HM04 fumarate salt on food intake behavior and glucose tolerance was investigated in the Snord116+/−(Het) mouse genetic model of Prader-Willi syndrome (Het mouse) compared to wild-type (WT) littermates. Since D2R agonists suppress food intake, the FDA approved D2R agonist cabergoline was used as an experimental control. Phenotypic characteristics of this PWS mouse model include hyperphagia, postnatal growth retardation, high ghrelin, and low growth hormone. Ding F., et al. SnoRNA Snord116 (Pwcr1/MBII-85) deletion causes growth deficiency and hyperphagia in mice. PloS one. 2008; 3(3):e1709. These PWS mice eat more frequently than WT littermates, particularly during the light cycle and are more motivated to work for food (more level presses) (data not shown).
Acute administration: Mice (3-, 7-, and 12-month-old) were fasted for 16 hours and then administered a single intraperitoneal injection of vehicle or vehicle containing HM04, cabergoline, or HM04 and cabergoline according to Table 8, below.
HM04 was dissolved in water for injection and cabergoline was dissolved in DMSO to provide a 5% DMSO/water solution for injection. Mice were then given free access to food, and cumulative food intake was measured at 1, 2, 4, 8, 12, and 24 hours post-dosing. […] Data was analyzed for significance using 2-way ANOVA, Bonferroni post hoc test (Graphpad Prism, Prism 5.0, San Diego, Calif.).

What is called bioavailability is dose-corrected exposure relative to a reference, in per cent. In the case of `CN1CCC(N(C)C(=O)N[C@H](c2ccc(-c3cnccn3)c(Cl)c2Cl)C(F)(F)F)CC1` [HM04, (R)-3-(1-(2,3-dichloro-4-(pyrazin-2-yl)phenyl)-2,2,2-trifluoroethyl)-1-methyl-1-(1-methylpiperidin-4-yl)urea], in series [1] (male, Sprague Dawley, plasma, oral doses of 3 and 10 mg/kg), the bioavailability lay in the range of 40 to 50%. Moreover, in series [1] (oral 3, 10, 30 mg/kg), the “exposure to HM04 versus dose” value is recorded as “more than a proportional increase at 30 mg/kg”. Moreover, the “detectable pre-dose concentrations of HM04” value in series [2] (3 mg/kg oral, three of the four dogs, range) fell in the range of 5.15 to 8.31 ng/mL. For the same compound, in series [2] (oral 10 mg/kg, Dog 2), the detectable pre-dose concentration is recorded as 8.60 ng/mL. Besides, the cumulative food intake entry is “significantly suppressed food intake at 12 and 24 hours post-dosing” in series [3] (3-month-old Het mice, HM04 10 mg/kg single i.p.); “failed to inhibit food intake” in series [3] (3-month-old WT mice, HM04 10 mg/kg single i.p.); “did not inhibit food intake” in series [3] (7-month-old Het mice, HM04 10 mg/kg single i.p.); “did not inhibit food intake” in series [3] (7-month-old WT mice, HM04 10 mg/kg single i.p.). The food intake result in series [3] (7-month-old Het mice, HM04 30 mg/kg single i.p.) was “inhibited food intake for up to 8 hours”; in series [3] (7-month-old WT mice, HM04 30 mg/kg single i.p.), “no apparent effect on food intake”; in series [3] (12-month-old Het mice, HM04 10 mg/kg single i.p., 1 hour after dosing), “suppressed food intake”; in series [3] (12-month-old Het mice, HM04 10 mg/kg single i.p., after 1 hour (up to 24 hours)), “that level of inhibition was not maintained”; in series [3] (12-month-old WT mice, HM04 10 mg/kg i.p.), “did not reduce food intake”.
